Test results from ChEMBL document CHEMBL2413072, “Synthesis and in vitro anticancer studies of novel C-2 arylidene congeners of lantadenes” (2013).

How the values were obtained:
Format in all cases: functional
MOLT-4 [1] = test: Growth inhibition of human MOLT4 cells assessed as growth inhibition at 10 uM by sulforhodamine B assay; conditions: read-out: GI
HOP-92 = test: Growth inhibition of human HOP92 cells assessed as cell growth at 10 uM by sulforhodamine B assay; conditions: read-out: Activity
K562 = test: Growth inhibition of human K562 cells assessed as cell growth at 10 uM by sulforhodamine B assay; conditions: read-out: Activity
NCI-H522 = test: Growth inhibition of human NCI-H522 cells assessed as cell growth at 10 uM by sulforhodamine B assay; conditions: read-out: Activity
SK-OV-3 = test: Growth inhibition of human SKOV3 cells assessed as cell growth at 10 uM by sulforhodamine B assay; conditions: read-out: Activity
IGROV-1 [2] = test: Growth inhibition of human IGROV1 cells assessed as cell growth at 10 uM by sulforhodamine B assay; conditions: read-out: Activity
HT-29 = test: Growth inhibition of human HT-29 cells assessed as cell growth at 10 uM by sulforhodamine B assay; conditions: read-out: Activity
786-0 = test: Growth inhibition of human 786-0 cells assessed as growth inhibition at 10 uM by sulforhodamine B assay; conditions: read-out: GI
BT-549 = test: Growth inhibition of human BT549 cells assessed as growth inhibition at 10 uM by sulforhodamine B assay; conditions: read-out: GI
SK-MEL-5 = test: Growth inhibition of human SK-MEL-5 cells assessed as cell growth at 10 uM by sulforhodamine B assay; conditions: read-out: Activity
SN12C = test: Growth inhibition of human SN12C cells assessed as cell growth at 10 uM by sulforhodamine B assay; conditions: read-out: Activity
SK-MEL-28 = test: Growth inhibition of human SK-MEL-28 cells assessed as cell growth at 10 uM by sulforhodamine B assay; conditions: read-out: Activity
M14 [3] = test: Growth inhibition of human M14 cells assessed as cell growth at 10 uM by sulforhodamine B assay; conditions: read-out: Activity
MOLT-4 [4] = test: Growth inhibition of human MOLT4 cells assessed as cell growth at 10 uM by sulforhodamine B assay; conditions: read-out: Activity
MDA-MB-231 [5] = test: Growth inhibition of human MDA-MB-231 cells assessed as cell growth at 10 uM by sulforhodamine B assay; conditions: read-out: Activity
NCI-H460 = test: Growth inhibition of human NCI-H460 cells assessed as cell growth at 10 uM by sulforhodamine B assay; conditions: read-out: Activity
MDA-MB-231 [6] = test: Growth inhibition of human MDA-MB-231 cells assessed as growth inhibition at 10 uM by sulforhodamine B assay; conditions: read-out: GI
SNB-19 = test: Growth inhibition of human SNB19 cells assessed as cell growth at 10 uM by sulforhodamine B assay; conditions: read-out: Activity
A498 [7] = test: Growth inhibition of human A498 cells assessed as cell growth at 10 uM by sulforhodamine B assay; conditions: read-out: Activity
OVCAR-8 = test: Growth inhibition of human OVCAR8 cells assessed as growth inhibition at 10 uM by sulforhodamine B assay; conditions: read-out: GI
COLO 205 [8] = test: Growth inhibition of human COLO205 cells assessed as cell growth at 10 uM by sulforhodamine B assay; conditions: read-out: Activity
CCRF-CEM = test: Growth inhibition of human CCRF-CEM cells assessed as growth inhibition at 10 uM by sulforhodamine B assay; conditions: read-out: GI
ACHN [9] = test: Growth inhibition of human ACHN cells assessed as growth inhibition at 10 uM by sulforhodamine B assay; conditions: read-out: GI
SR = test: Growth inhibition of human SR cells assessed as growth inhibition at 10 uM by sulforhodamine B assay; conditions: read-out: GI
[10] = Growth inhibition of human NCI-ADR-RES cells assessed as growth inhibition at 10 uM by sulforhodamine B assay; conditions: read-out: GI
HOP-62 [11] = test: Growth inhibition of human HOP62 cells assessed as cell growth at 10 uM by sulforhodamine B assay; conditions: read-out: Activity
SF-295 = test: Growth inhibition of human SF295 cells assessed as growth inhibition at 10 uM by sulforhodamine B assay; conditions: read-out: GI
HOP-62 [12] = test: Growth inhibition of human HOP62 cells assessed as growth inhibition at 10 uM by sulforhodamine B assay; conditions: read-out: GI
CAKI-1 = test: Growth inhibition of human CAKI-1 cells assessed as growth inhibition at 10 uM by sulforhodamine B assay; conditions: read-out: GI
NCI-H226 = test: Growth inhibition of human NCI-H226 cells assessed as cell growth at 10 uM by sulforhodamine B assay; conditions: read-out: Activity
UO-31 = test: Growth inhibition of human UO31 cells assessed as cell growth at 10 uM by sulforhodamine B assay; conditions: read-out: Activity
ACHN [13] = test: Growth inhibition of human ACHN cells assessed as cell growth at 10 uM by sulforhodamine B assay; conditions: read-out: Activity
NCI-H322M = test: Growth inhibition of human NCI-H322M cells assessed as growth inhibition at 10 uM by sulforhodamine B assay; conditions: read-out: GI
LOX IMVI = test: Growth inhibition of human LOXIMVI cells assessed as growth inhibition at 10 uM by sulforhodamine B assay; conditions: read-out: GI
Malme-3M = test: Growth inhibition of human MALME-3M cells assessed as cell growth at 10 uM by sulforhodamine B assay; conditions: read-out: Activity
U-251 = test: Growth inhibition of human U251 cells assessed as cell growth at 10 uM by sulforhodamine B assay; conditions: read-out: Activity
MDA-MB-468 = test: Growth inhibition of human MDA-MB-468 cells assessed as cell growth at 10 uM by sulforhodamine B assay; conditions: read-out: Activity
OVCAR-5 = test: Growth inhibition of human OVCAR5 cells assessed as growth inhibition at 10 uM by sulforhodamine B assay; conditions: read-out: GI
MCF7 [14] = test: Growth inhibition of human MCF7 cells assessed as growth inhibition at 10 uM by sulforhodamine B assay; conditions: read-out: GI
RPMI-8226 = test: Growth inhibition of human RPMI8226 cells assessed as growth inhibition at 10 uM by sulforhodamine B assay; conditions: read-out: GI
IGROV-1 [15] = test: Growth inhibition of human IGROV1 cells assessed as growth inhibition at 10 uM by sulforhodamine B assay; conditions: read-out: GI
COLO 205 [16] = test: Growth inhibition of human COLO205 cells assessed as growth inhibition at 10 uM by sulforhodamine B assay; conditions: read-out: GI
SK-MEL-2 = test: Growth inhibition of human SK-MEL-2 cells assessed as cell growth at 10 uM by sulforhodamine B assay; conditions: read-out: Activity
M14 [17] = test: Growth inhibition of human M14 cells assessed as growth inhibition at 10 uM by sulforhodamine B assay; conditions: read-out: GI
A498 [18] = test: Growth inhibition of human A498 cells assessed as growth inhibition at 10 uM by sulforhodamine B assay; conditions: read-out: GI
NCI-H23 = test: Growth inhibition of human NCI-H23 cells assessed as cell growth at 10 uM by sulforhodamine B assay; conditions: read-out: Activity
HCT-15 = test: Growth inhibition of human HCT15 cells assessed as growth inhibition at 10 uM by sulforhodamine B assay; conditions: read-out: GI
MCF7 [19] = test: Growth inhibition of human MCF7 cells assessed as cell growth at 10 uM by sulforhodamine B assay; conditions: read-out: Activity
OVCAR-3 = test: Growth inhibition of human OVCAR3 cells assessed as cell growth at 10 uM by sulforhodamine B assay; conditions: read-out: Activity

CC(C)=CC(=O)O[C@@H]1CC(C)(C)C[C@H]2C3=CC[C@@H]4[C@@]5(C)CC[C@H](O)C(C)(C)[C@@H]5CC[C@@]4(C)[C@]3(C)CC[C@@]12C(=O)O [Reduced Lantadene B]
inhibition of growth at 10 µM (MOLT-4 [1]): 50.4%
growth at 10 µM (HOP-92): 43%
growth at 10 µM (K562): 45.2%
growth at 10 µM (NCI-H522): 67.7%
growth at 10 µM (SK-OV-3): 89.4%
growth at 10 µM (IGROV-1 [2]): 78.3%
growth at 10 µM (HT-29): 49.3%
inhibition of growth at 10 µM (786-0): 38.2%
inhibition of growth at 10 µM (BT-549): 21.9%
growth at 10 µM (SK-MEL-5): 61.5%
growth at 10 µM (SN12C): 50.9%
growth at 10 µM (SK-MEL-28): 88.3%
growth at 10 µM (M14 [3]): 94%
growth at 10 µM (MOLT-4 [4]): 49.6%
growth at 10 µM (MDA-MB-231 [5]): 81.3%
growth at 10 µM (NCI-H460): 50.3%
inhibition of growth at 10 µM (MDA-MB-231 [6]): 18.7%
growth at 10 µM (SNB-19): 85.6%
growth at 10 µM (A498 [7]): 100%
inhibition of growth at 10 µM (OVCAR-8): 40.1%
growth at 10 µM (COLO 205 [8]): 68.1%
inhibition of growth at 10 µM (CCRF-CEM): 72.6%
inhibition of growth at 10 µM (ACHN [9]): 53.7%
inhibition of growth at 10 µM (SR): 29.8%
inhibition of growth at 10 µM [10]: 45.5%
growth at 10 µM (HOP-62 [11]): 53.7%
inhibition of growth at 10 µM (SF-295): 55.4%
inhibition of growth at 10 µM (HOP-62 [12]): 46.3%
inhibition of growth at 10 µM (CAKI-1): 64.4%
growth at 10 µM (NCI-H226): 78.7%
growth at 10 µM (UO-31): 60.9%
growth at 10 µM (ACHN [13]): 46.3%
inhibition of growth at 10 µM (NCI-H322M): 40.3%
inhibition of growth at 10 µM (LOX IMVI): 46.8%
growth at 10 µM (Malme-3M): 96.7%
growth at 10 µM (U-251): 39.2%
growth at 10 µM (MDA-MB-468): 113%
inhibition of growth at 10 µM (OVCAR-5): < 10%
inhibition of growth at 10 µM (MCF7 [14]): 37.3%
inhibition of growth at 10 µM (RPMI-8226): 76.3%
inhibition of growth at 10 µM (IGROV-1 [15]): 21.7%
inhibition of growth at 10 µM (COLO 205 [16]): 31.9%
growth at 10 µM (SK-MEL-2): 86.5%
inhibition of growth at 10 µM (M14 [17]): < 10%
inhibition of growth at 10 µM (A498 [18]): < 10%
growth at 10 µM (NCI-H23): 63.4%
inhibition of growth at 10 µM (HCT-15): 74.9%
growth at 10 µM (MCF7 [19]): 62.7%
growth at 10 µM (OVCAR-3): 73.9%
